The test system of one series is rat coronary arteries. The series is described as follows: Rat coronary artery constriction and relaxation (U46619, acetylcholine). Conditions: for constriction of rat coronary artery by the peptide: 10^-6 M peptide. The procedure: The effects of β-amyloid peptide were examined on samples of rat coronary arteries prepared as described above. Referring specifically to FIG. 1, rat coronary arteries were treated with β-amyloid peptide (Aβ40) causing constriction of the coronary arteries.
FIG. 3 illustrates the effect of various amyloid fragments on the constriction of rat coronary arteries. Following control constriction with 10^-7 M U46619, the tissue samples were rinsed, equilibrated with buffer, and treated with 10^-6 M Aβ peptides for fifteen minutes. Following treatment with the Aβ peptides, the blood vessels were rinsed and again exposed to U46619. The values are expressed as percent of control constriction produced by U46619 alone.
The effect of pretreatment of coronary arteries with a single dose (10^-6 M) of A40 on acetylcholine induced relaxation is shown in FIG. 20. The blood vessel was preconstricted with 10^-7 M U46619 and relaxed with increasing doses of acetylcholine (10^-9 M to 10^-5 M).

The next series has as its system aortic rings. In words: β-amyloid augmentation of phenylephrine (PE) induced contraction of aortic rings. Further details: species or system rat. Conditions: for effect on β-amyloid induced enhancement of PE mediated contraction: β-amyloid 5×10^-7 M, PE 4×10^-8 M, L-NMMA 10^-4 M, indomethacin 10^-5 M, SQ 29548 10^-5 M, catalase 1000 units/ml. The protocol:
(§1) The blood vessel preparations were mounted on stainless steel hooks attached to a force-displacement transducer and equilibrated under the optimum tension of 1.3 g for a period of sixty minutes in a tissue bath (10 ml) containing oxygenated (5% CO2 in O2) Kreb's buffer at 37° C. The buffer was changed every fifteen minutes. After equilibration for sixty minutes the viability of the blood vessel with intact endothelium was established by constricting the blood vessel using phenylephrine ([…]). This dose of phenylephrine elicited 80% of the maximum response. […] The vessel preparations were washed for fifteen minutes before various manipulations as described below.
The procedure was then repeated following incubation of the tissue with 10^-6 M β-amyloid for fifteen minutes (P1). The tissue was then rinsed and contractions repeated twice following fifteen minute incubation (P2 & P3) without further addition of β-amyloid. Arrows are shown for points of addition for P3.
Following a fifteen minute incubation, the preparations were contracted with 10^-7 M phenylephrine (PE) as described earlier. Control contractions with PE alone were carried out in presence of the various test compounds. Values represent the mean±SEM of four or more experiments. The heat-inactivated SOD was prepared by placing it in boiling water for thirty minutes followed by cooling prior to use. The hydrogen peroxide-inactivated SOD was prepared by exposing SOD to 10 mM H2 O2 for thirty minutes at pH 8.5 and subsequent separation using Microcon filtration system. The amyloid induced PE contraction was blocked by active SOD. Neither albumin or inactivated SOD had any effect on the amyloid activity.
The effect of preincubation of blood vessel with 10^-6 M β-amyloidon contraction induced by phenylephrine (2, 4, 8, & 16×10^-8 M is shown in Table 1). The maximum contraction in the absence of β-amyloid is taken as 100% and the values obtained following exposure to β-amyloid are expressed as percent of control value. After washing out phenylephrine and acetylcholine of the control contraction, β-amyloid augmented the phenylephrine induced contractions (P1). This effect was blocked by SOD. Washing out the phenylephrine and acetylcholine of the post peptide contraction and repeating the contractions caused further enhancement (P2). Values represent the mean±SEM of nine or more experiments.
The tissue was then incubated for fifteen minutes with β-amyloid (5×10^-7 M) with or without the drug, followed by contractions with PE. The concentrations compounds used were: L-NMMA, an inhibitor of NO synthase (10^-4 M); indomethacin, an inhibitor of the cyclooxygenase pathway (10^-5 M); SQ 29548, a thromboxane A2 receptor antagonist (10^-5 M); and catalase (1000 units/ml). Values are represented as percentage of the maximal contraction obtained with β-amyloid and PE alone and standardized to remove the intrinsic effects (if any) of each drug on PE contraction alone. The results represent the mean±SEM of five or more experiments.

The subject of series [1] is human neuroblastoma cell line (BE(2)-M17). In words: Aβ toxicity on BE(2)-M17 (trypan blue exclusion). Type of series: cell-based. Conditions: same concentrations as HAEC cultures, up to day eight; data not shown. The source says: Trypan blue exclusion was used for the cell viability assay.
In another series the test system is rat aorta. The series is described as follows: Enhancement of endothelin-1 (ET-1) induced vasoconstriction of rat aorta. Conditions: for enhancement of ET-1 contraction: peptide 1 μM (Aβ25-35 1 μM and 5 μM) ten minutes prior to first ET-1 dose. The protocol: Normal Sprague-Dawley rats were sacrificed by decapitation, and freshly dissected rat aorta was segmented into rings and suspended in Ringers buffer using a tensiometer linked to the MacLab system. Following a two hour equilibration period, the "pretreatment" contraction was carried out. The aortic rings were contracted using a range of doses of endothelin-1 and relaxed using a single odes of acetylcholing (Ach(10^-7 M)). […] The dose of each Aβ peptide was 1 μM, with the exception of Aβ25-35 (1 μM and 5 μM), and was added ten minutes prior to the first ET-1 dose. For SOD treatment we added 150 U/ml 30 seconds before the addition of Aβ.
Endothelium was removed by gently passing a glass pipette, dipped in saline solution, through the lumen of the aortae several time, allowing the pipette to gently brush the endothelial surface. Endothelium was removed from the aortae prior to hanging in the tissue bath system. Both pre-and post treatment contractions involved a single does of ET-1 (5×10^-9 M).
In all cases the mean difference in percentage contraction in the pre- and post-contractions (before and after addition of test compound respectively) was measured, and compared between the two. Endogenous production of ET-1 was measured using an ET-1 RIA kit (Peninsula Laboratories).

Series [2] relates to human aortic endothelial cel line (HAEC).
Method: (§2) All these cells were maintained at 37° C., under an atmosphere containing 5% CO2. For the present experiments, HAEC and BE(2)-M17 were seeded at densities of 2×10^4 cells per well in 24-23ll clusters.
(§3) The experiments were terminated one half, one, two and three hours post treatment by detachment with Trypsin/EDTA solution and followed by a toxicity assay with trypan blue exclusion. In parallel experiments, cells were attached to a round Thermanox (Nunc) at the bottom of the well, and were stopped three to 24 hours post treatment by fixation with 4% neutral formalin solution which was followed by Hematoxylin-Eosin stain to show morphology.
(§4) Morphological changes in cells were monitored throughout the course of the experiment with an inverse phase-contrast microscope. After termination of the experiments, the cells fixed on the Thermanox were subjected to routine Hematoxylin-Eosin (HE) stain. The morphological characteristics of toxic cells were observed under light microscope and typical results were recorded by photographs.
(§5) For approximate quantification of Aβ toxicity of HAEC, modified procedure for trypan blue exclusion was employed. In brief, the detached cells were resuspended with an appropriate volume of culture media, 20 μl of this cell suspension was mixed with an equivalent volume of 4% Trypan-blue solution thoroughly, and allowed to sit for two minutes after mixing. Approximately 9 μl of the mixture was transferred to a hemocytometer for cell counting. The cell viability was determined by the equation: [formula] In the case of severe toxicity, where some of the cells were lysed, the total cell numbers were adjusted by that of controls. In this experiment, counts for each sample were triplicated.
Series [3] shares this test system. The series is described as follows: Aβ toxicity on HAEC and its prevention (trypan blue exclusion, HE stain). Conditions: pimozide 10 μM, three hours post treatment.
Method: as §2, §3, §4, §5
A further series relates to blood vessel (rat aorta). In words: Vascular response of blood vessel rings in tissue bath (basal tension, β-amyloid induced vasoactivity). The procedure: Freshly excised rat and porcine blood vessels were placed in Kreb's bicarbonate buffer equilibrated with 5% CO2 in O2. The buffer composition consisted of 118.2 mM NaCl, 4.7 mM KCl, 1.2 mM MgSO4, 2.5 mM CaCl2, 1.2 mM NaH2 PO4, 23 mM NaHCO3 and 11.2 mM glucose. After cleaning the vessels free of fat and other adhering tissues, the vessels were cut into ring segments of approximately 3 mm in length. Care was taken not to damage the intimal surface.
The endothelium was removed from some preparations by rubbing the inside of the lumen with a metal spatula for six to ten seconds and subsequent rinsing with buffer. The removal of endothelium was confirmed by testing for relaxation to acetylcholine [Furchgott and Zawadzki, 1980].
as §1
Referring to FIG. 10, the arrow indicates the addition of 10^-6 M β-amyloid. The control tissue received no β-amyloid. SOD (150 units/ml) was added thirty seconds prior to the addition of β-amyloid. The maximum contraction induced by β-amyloid was 1.14±0.13 (g) and in presence of SOD the contraction was reduced to 0.04±0.02 (g). Values represent the mean±SEM of five separate experiments.

For the molecule Aβ1-28: β-amyloid peptide fragment 1-28, in the series on rat coronary arteries, the “constriction of rat coronary artery by the peptide” value was “induce constriction of the coronary artery”.

Regarding `COc1ccc2c(c1)c(CC(=O)O)c(C)n2C(=O)c1ccc(Cl)cc1` [indomethacin], the “effect on β-amyloid induced enhancement of PE mediated contraction” value (shortened to “effect on β-amyloid induced enhancement”) in the series on aortic rings is “None of the compounds exerted any significant effect”.

Take albumin: in the series with aortic rings (preincubation before 10^-6 M β-amyloid, 10^-7 M PE), the “protection against β-amyloid enhancement of PE induced contraction” value is given as “did not protect”. Consider catalase, for which the “effect on β-amyloid induced enhancement” value with aortic rings is reported as “None of the compounds exerted any significant effect”. Regarding “Aβ25-35: fragment of Aβ, widely regarded to be the neurotoxic fragment (GSNKGAIIGLM; Amyloid-beta protein 42; UniProt P05067 696-706, looked up, fragment)”, in series [1], the “toxic effect on differentiated BE(2)-M17 cells” value is “not toxic effect was noticed”. In the series with rat aorta, the “enhancement of ET-1 contraction” value is given as “unable to enhance contraction even at five times the concentration of Aβ1-40”. In addition, in the series on rat coronary arteries, the “constriction of rat coronary artery by the peptide” value is given as “induce constriction of the coronary artery”. Also, in series [2], the “cell morphology by HE staining” value was “highly vacuolized cytoplasm, blebbing cell membranes and swelling cell bodies”; the “cell viability one half hour post treatment” value is on record as “significant reduction of cell viability”; the “time and dose dependence of toxic effects on HAEC” value is listed as “time-and dose-dependent manner”. With `O=c1[nH]c2ccccc2n1C1CCN(CCCC(c2ccc(F)cc2)c2ccc(F)cc2)CC1` [pimozide], in series [3], the “own toxicity of the blocker on HAEC” value was “seems to be toxic itself”. Take “Aβ1-42: β-amyloid peptide with forty-two amino acids; supplied by RBI and/or MD Enterprise”: the “toxic effect on differentiated BE(2)-M17 cells” value in series [1] is “not toxic effect was noticed”. Further, in the series on rat aorta, the “enhancement of vasoconstriction compared with Aβ1-40” value is “decreased enhancement of vasoconstriction” and the “enhancement of ET-1 contraction” value was “also enhanced the ET-1 contraction”. Besides, in series [2], the “cell morphology by HE staining” value was “highly vacuolized cytoplasm, blebbing cell membranes and swelling cell bodies”; the “cell viability one half hour post treatment” value was “significant reduction of cell viability”; the “time and dose dependence of toxic effects on HAEC” value is given as “time-and dose-dependent manner”. In the case of `Oc1ncnc2[nH]ncc12` [allopurinol], the “effect of allopurinol on Aβ enhancement” value in the series with rat aorta is “No effect on Aβ enhancement”. For `CNC(=N)NCCC[C@H](N)C(=O)O` [L-NMMA], the “effect on β-amyloid induced enhancement” value in the series with aortic rings is “None of the compounds exerted any significant effect”. With `COc1ccc(CCN(C)CCCC(C#N)(c2ccc(OC)c(OC)c2)C(C)C)cc1OC` (stereo not shown) [verapamil], in the series on rat aorta (verapamil 50 μM), the “ET-1 contraction with the compound alone” value is recorded as “caused enhancement of contraction”. In addition, in the series on rat aorta (verapamil 50 μM two minutes before Aβ, endothelium present), the “effect on Aβ enhancement of ET-1 contraction” value is “had no effect on Aβ enhancement”. `CCCCC[C@H](O)/C=C/[C@@H]1[C@@H](C/C=C\CCCC(=O)O)[C@H]2CO[C@@H]1C2` [U46619]: the “constriction of rat coronary artery by vasoconstrictor” value in the series on rat coronary arteries (10^-7 M) is given as “caused constriction of the blood vessel”. Turning to `O=C(O)CCC/C=C\C[C@@H]1[C@H](CNNC(=O)Nc2ccccc2)[C@H]2CC[C@@H]1O2` [SQ 29548], in the series with aortic rings, the “effect on β-amyloid induced enhancement” value was “None of the compounds exerted any significant effect”.

Take `CNC[C@H](O)c1cccc(O)c1` [phenylephrine]: the Emax at 1000 µM in the series on blood vessel (rat aorta) (Rattus norvegicus, phenylephrine (1 mM), viability test of vessel, read-out: response elicited, of the maximum response) amounted to 80%. Moreover, the “constriction of blood vessel” value with blood vessel (rat aorta) (with or without endothelium) is recorded as “constricted in response to phenylephrine with or without endothelium”.
